These results are taken from publication PMC6337671, “Simultaneous Determination of Five Phenolic Acids and Four Flavonoid Glycosides in Rat Plasma Using HPLC-MS/MS and Its Application to a Pharmacokinetic Study after a Single Intravenous Administration of Kudiezi Injection” (Molecules, 2018).

Data set [1] can be described thus: Stability of the nine components in rat plasma QC samples (auto-sampler, freeze-thaw, long-term). Type of data set: physicochemical. The note with it: n = 5; for 6 h in Auto-Sample, RE: extracted rat plasma; for Freeze-Thaw Stability (Three Cycles), RE / Long-Term Stability (−80 °C, 14 Days), RE: rat plasma. As for the experimental part:
The stability of the nine components in rat plasma was investigated under a variety of storage and process conditions. Table 4 summarizes the results of post-preparation (The QC samples were kept in the auto-sampler for 6 h), freeze and thaw and long-term (at −80 °C for 14 days) stability experiments.
Stability of the nine components were assessed under the condition of placing extracted plasma samples in auto-sampler for 6 h, as well as placing plasma samples within freeze-thaw three cycles and at −80 °C for 14 days. LQC, MQC and HQC samples with five replicates at each level were kept at the above conditions and analyzed against freshly prepared calibrators as the reference.

A short description of data set [2]: Pharmacokinetic study in rats after a single intravenous administration of concentrated Kudiezi injection (HPLC-MS/MS of plasma). Type of data set: in vivo, Sprague-Dawley rats. The note with it: single i.v. 3.6 mL/kg of 15 times concentrated KI, mean ± SD; for MRT last: n = 5, read-out: MRT0-t; for MRT inf: n = 5, read-out: MRT0-∞.
Protocol: Eight male Sprague-Dawley rats (200 ± 20 g) were obtained from Laboratory Animal Center of Fujian Medical University (Fuzhou, China). The animal studies were conducted in accordance with the Guide for the Care and Use of Laboratory Animals published by the USA National Institutes of Health (NIH Publication No. 85-23, revised 1996) and were approved by the Animal Ethic Review Committee of Fujian Medical University (Fuzhou, China). The rats were housed in rat cages (48 × 29 × 18 cm^3), in a unidirectional airflow room at a temperature of 22 ± 2 °C, a relative humidity of 40–70% and a 12 h light/dark cycle. They were fed with freely available commercial food and filtered tap water, and fasted with free access to water for 12 h before the experiments. Three of these rats were selected randomly as blank group with the above mentioned feeding conditions and without administration of drug, and after 24 h from the beginning of the experiment, their blood was collected up exhaustively from abdominal aorta to provide blank plasma for methodological validation. […] All rats were acclimated to the facilities and environment for 7 days before the experiments.
After administration, the rat tail was carefully cleaned with alcohol soaked cotton balls around the injection site to remove the residual drug. Blood was collected from the cut-tail before dosing and at the following time points: 2.5, 5, 10, 15, 20, 30, 45 min and 1, 2, 3, 4, 6, 8, 12 and 24 h after dosing. Plasma was isolated from the blood samples by centrifugation and then stored at −80 °C until analysis.
Noncompartmental pharmacokinetic parameters were calculated by DAS 3.0 software (Version DAS 3.2.8, Chinese Pharmacologic Society, Beijing, China). All the results are expressed as mean ± SD. A single-tailed Student’s t test was performed in the work.
Data set [3] concerns Mas-related G protein coupled receptor X2. Details: method as in PMID 30048896. The note with it: cited from earlier work.
[4] abbreviates: HQC spiked 2000 ng/mL (4000 ng/mL for II).
Where [5] appears, read: LQC spiked 15 ng/mL (30 ng/mL for II).
[6] abbreviates: MQC spiked 500 ng/mL (1000 ng/mL for II).
Where [7] appears, read: male, Sprague-Dawley, rat, plasma, iv, 3.6 mL/kg, n = 5.
Where [8] appears, read: male, Sprague-Dawley, rat, plasma, iv, 3.6 mL/kg, n = 5, read-out: AUC0-t.
Where [9] appears, read: male, Sprague-Dawley, rat, plasma, iv, 3.6 mL/kg.
The mark [10] stands for this setting: male, Sprague-Dawley, rat, plasma, iv, 3.6 mL/kg, n = 5, read-out: Vd.

Where two headings read alike, the source gives them in different places.

Broadly, the AUC(0-inf) is total exposure, with the tail of the curve extrapolated. Usually clearance stands for a measure of how efficiently the substance is removed, as volume per time. As a reminder, the half-life is how long it takes for the measured level to halve. Usually Vd stands for the apparent volume that relates the amount in the body to the concentration in plasma or blood. On to `O=C(O)/C=C/c1ccc(O)c(O)c1` [Compound V, caffeic acid], for which, in data set [1] (setting [4]), the “6 h in Auto-Sample, RE” value is given as −11.88%; the “Freeze-Thaw Stability (Three Cycles), RE” value is reported as −7.76%; the “Long-Term Stability (−80 °C, 14 Days), RE” value (“Long-Term Stability” below) is 7.83%. Besides, in data set [1] (setting [5]), the “6 h in Auto-Sample, RE” value was −18.04%; the “Freeze-Thaw Stability (Three Cycles), RE” value is −13.66%; the “Long-Term Stability” value is given as −17.21%. Further, in data set [1] (setting [6]), the “6 h in Auto-Sample, RE” value is listed as −14.10%; the “Freeze-Thaw Stability (Three Cycles), RE” value was −2.10%; the “Long-Term Stability” value is listed as −5.99%. In data set [2] (setting [7]), this compound had an AUC(0-inf) of 237 ± 43.6 ng·h/mL, a clearance of 34.7 mL/min/kg and a half-life of 6.09 ± 0.9 h. For the same compound, the AUC(0-t) in data set [2] (setting [8]) is 146 ± 40.8 ng·h/mL. For the same compound, in data set [2] (setting [9]), the MRT last is 4.09 ± 1.36 h and the MRT inf was found to be 9.75 ± 1.7 h. Also, in data set [2] (setting [10]), the Vd stood at 17.9 ± 1.44 L/kg.
`O=c1cc(-c2ccc(O)c(O)c2)oc2cc(O[C@@H]3O[C@H](CO[C@@H]4O[C@H](CO)[C@@H](O)[C@H](O)[C@H]4O)[C@@H](O)[C@H](O)[C@H]3O)cc(O)c12` [Compound VI, luteolin-7-O-β-D-gentiobioside]: in data set [1] (setting [4]), the “6 h in Auto-Sample, RE” value is 0.23%; the “Freeze-Thaw Stability (Three Cycles), RE” value is recorded as 9.34%; the “Long-Term Stability” value was −5.24%. Moreover, in data set [1] (setting [5]), the “6 h in Auto-Sample, RE” value is listed as −14.11%; the “Freeze-Thaw Stability (Three Cycles), RE” value was −13.29%; the “Long-Term Stability” value is on record as −0.68%. In addition, in data set [1] (setting [6]), the “6 h in Auto-Sample, RE” value is reported as −14.25%; the “Freeze-Thaw Stability (Three Cycles), RE” value is reported as −3.78%; the “Long-Term Stability” value stood at 2.31%. In data set [2] (setting [7]), this compound showed an AUC(0-inf) of 173 ± 15 ng·h/mL, a clearance of 128 mL/min/kg and a half-life of 0.23 ± 0.12 h. In addition, in data set [2] (setting [8]), the AUC(0-t) came to 164 ± 8.34 ng·h/mL. In data set [2] (setting [9]), the MRT last was 0.2 ± 0.08 h and the MRT inf is 0.28 ± 0.15 h. Further, the Vd in data set [2] (setting [10]) worked out at 2.51 ± 1.13 L/kg.
Take `O=C(/C=C/c1ccc(O)c(O)c1)O[C@@H]1C[C@](O)(C(=O)O)C[C@@H](O)[C@H]1O` [I, 5-caffeoylquinic acid]: in data set [1] (setting [4]), the “6 h in Auto-Sample, RE” value is recorded as −5.26%; the “Freeze-Thaw Stability (Three Cycles), RE” value was −2.66%; the “Long-Term Stability” value was −3.42%. In data set [1] (setting [5]), the “6 h in Auto-Sample, RE” value is given as −15.03%; the “Freeze-Thaw Stability (Three Cycles), RE” value was −16.92%; the “Long-Term Stability” value was −10.71%. In addition, in data set [1] (setting [6]), the “6 h in Auto-Sample, RE” value is recorded as −14.93%; the “Freeze-Thaw Stability (Three Cycles), RE” value is reported as −8.67%; the “Long-Term Stability” value is reported as −1.12%. Besides, in data set [2] (setting [7]), the AUC(0-inf) was 209 ± 75.7 ng·h/mL, the clearance is 49.8 mL/min/kg and the half-life was 2.22 ± 1.15 h. Also, the AUC(0-t) in data set [2] (setting [8]) was found to be 170 ± 55.7 ng·h/mL. In data set [2] (setting [9]), the MRT last is 2.29 ± 1.65 h and the MRT inf was 3.94 ± 2.71 h. Also, the Vd in data set [2] (setting [10]) amounted to 8.22 ± 2.51 L/kg.
`O=C(/C=C/c1ccc(O)c(O)c1)O[C@@H](C(=O)O)[C@@H](O)C(=O)O` [II, caftaric acid]: in data set [1] (setting [4]), the “6 h in Auto-Sample, RE” value is given as 3.63%; the “Freeze-Thaw Stability (Three Cycles), RE” value was found to be 3.72%; the “Long-Term Stability” value is listed as −10.05%. Moreover, in data set [1] (setting [5]), the “6 h in Auto-Sample, RE” value was −12.49%; the “Freeze-Thaw Stability (Three Cycles), RE” value is recorded as −17.36%; the “Long-Term Stability” value was 1.30%. Also, in data set [1] (setting [6]), the “6 h in Auto-Sample, RE” value was −9.25%; the “Freeze-Thaw Stability (Three Cycles), RE” value came to 2.66%; the “Long-Term Stability” value is given as −5.34%. In addition, in data set [2] (setting [7]), the AUC(0-inf) worked out at 3080 ± 483 ng·h/mL, the clearance is 64.2 mL/min/kg and the half-life was 3.93 ± 0.47 h. The AUC(0-t) in data set [2] (setting [8]) amounted to 2760 ± 400 ng·h/mL. In addition, in data set [2] (setting [9]), the MRT last amounted to 3.84 ± 1.84 h and the MRT inf was found to be 6.25 ± 2.83 h. Further, the Vd in data set [2] (setting [10]) is 22.1 ± 6.21 L/kg.
Consider `O=C(/C=C/c1ccc(O)c(O)c1)O[C@@H]1C[C@](O)(C(=O)O)C[C@@H](O)[C@H]1O` [III, chlorogenic acid], for which, in data set [1] (setting [4]), the “6 h in Auto-Sample, RE” value is given as −2.78%; the “Freeze-Thaw Stability (Three Cycles), RE” value is 2.98%; the “Long-Term Stability” value is listed as 2.07%. In data set [1] (setting [5]), the “6 h in Auto-Sample, RE” value is reported as −7.40%; the “Freeze-Thaw Stability (Three Cycles), RE” value is reported as −18.29%; the “Long-Term Stability” value was −1.71%. Further, in data set [1] (setting [6]), the “6 h in Auto-Sample, RE” value is listed as −14.11%; the “Freeze-Thaw Stability (Three Cycles), RE” value is −5.77%; the “Long-Term Stability” value is given as −1.20%. Further, in data set [2] (rat plasma, n = 5), the “AUC0-∞” value turned out to be 199.84 ± 37.15 ng·h/mL, the AUC(0-t) is 155.43 ± 23.39 ng·h/mL, the Cl was 42.2 ± 7.17 mL/min/kg and the MRT0-t worked out at 3.30 ± 0.99 h. Further, in data set [2] (rat plasma, n = 5), the “MRT0-∞” value was determined as 5.93 ± 1.39 h, the Vd turned out to be 11.96 ± 3.10 L/kg and the t1/2 amounted to 3.36 ± 0.97 h.
Consider `O=C(/C=C/c1ccc(O)c(O)c1)O[C@H]1[C@H](O)C[C@](O)(C(=O)O)C[C@H]1O` [IV, 4-caffeoylquinic acid], for which, in data set [1] (setting [4]), the “6 h in Auto-Sample, RE” value is on record as 6.12%; the “Freeze-Thaw Stability (Three Cycles), RE” value was determined as 6.55%; the “Long-Term Stability” value amounted to 2.14%. In addition, in data set [1] (setting [5]), the “6 h in Auto-Sample, RE” value is −14.16%; the “Freeze-Thaw Stability (Three Cycles), RE” value was −14.73%; the “Long-Term Stability” value is reported as −10.44%. Besides, in data set [1] (setting [6]), the “6 h in Auto-Sample, RE” value is given as −15.00%; the “Freeze-Thaw Stability (Three Cycles), RE” value is reported as −0.15%; the “Long-Term Stability” value is on record as −1.40%. Further, in data set [2] (setting [7]), the AUC(0-inf) worked out at 209 ± 54 ng·h/mL, the clearance is 30.2 mL/min/kg and the half-life is 2.92 ± 1.13 h. The AUC(0-t) in data set [2] (setting [8]) is 160 ± 39.4 ng·h/mL. Moreover, in data set [2] (setting [9]), the MRT last turned out to be 2.72 ± 1.32 h and the MRT inf was determined as 5.07 ± 2.17 h. The Vd in data set [2] (setting [10]) was 7.03 ± 1.29 L/kg.
Consider `O=C(O)[C@H]1O[C@@H](Oc2cc(O)c3c(=O)cc(-c4ccc(O)cc4)oc3c2)[C@H](O)[C@@H](O)[C@@H]1O` [IX, apigenin-7-O-β-D-glucuronide], for which, in data set [1] (setting [4]), the “6 h in Auto-Sample, RE” value is 7.78%; the “Freeze-Thaw Stability (Three Cycles), RE” value amounted to 3.36%; the “Long-Term Stability” value is reported as 5.33%. Also, in data set [1] (setting [5]), the “6 h in Auto-Sample, RE” value is on record as −13.77%; the “Freeze-Thaw Stability (Three Cycles), RE” value is −13.08%; the “Long-Term Stability” value is recorded as −2.73%. For the same compound, in data set [1] (setting [6]), the “6 h in Auto-Sample, RE” value is on record as −1.56%; the “Freeze-Thaw Stability (Three Cycles), RE” value is 0.53%; the “Long-Term Stability” value was −0.28%. In data set [2] (setting [7]), this compound showed an AUC(0-inf) of 56.1 ± 8.49 ng·h/mL, a clearance of 168 mL/min/kg and a half-life of 0.07 ± 0.01 h. For the same compound, the AUC(0-t) in data set [2] (setting [8]) worked out at 55.7 ± 8.5 ng·h/mL. In data set [2] (setting [9]), the MRT last amounted to 0.09 ± 0.01 h and the MRT inf is 0.09 ± 0.01 h. The Vd in data set [2] (setting [10]) stood at 1 ± 0.24 L/kg. The “identified as potential anaphylactoid component in KI” value in data set [3] was “potential anaphylactoid components”.
